# Laboratory results as given in the supplement of paper PMC8671470.
# What was measured:
# Conditions in all cases: 72 h
# BV-173 = tested on: BV-173
# Method in brief: (§1)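 Dose–response data were fitted with a four-parameter log-logistic model. They came from fifteen myeloid leukaemia lines treated in duplicate with five tenfold doses from 1 to 10,000 nM for 72 h at 37 °C with 5% CO2, with ATP viability normalised to vehicle and to a positive control at 10 µM. The IC50 was derived from these fits.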
# ML-2 = tested on: ML-2
# Method in brief: as §1
# MOLM-13 = tested on: MOLM-13
# Method in brief: as §1
# LAMA-84 = tested on: LAMA-84
# Method in brief: as §1
# KG-1 = tested on: KG-1
# Method in brief: as §1
# KCL-22 = tested on: KCL-22
# Method in brief: as §1
# HL-60 [1] = tested on: HL-60
# Method in brief: as §1
# HEL = tested on: HEL
# Method in brief: as §1
# THP-1 = tested on: THP-1
# Method in brief: as §1
# SHI-1 = tested on: SHI-1
# Method in brief: as §1
# HL-60 [2] = assay: area under dose-response curve (viability, 1 nM-10 uM) (fraction (0-1)); higher = more sensitive
# Method in brief: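 In 384-well plates, the full library was rescreened in duplicate on HL-60 cells in RPMI 1640 with 10% FBS, at 1–10,000 nM in five tenfold concentrations, for 72 h at 37 °C, 5% CO2. Each run also held DMSO or 100 nM of one of three metabolic inhibitors. Viability was measured by CellTiter-Glo and normalised to DMSO wells and to wells with proteasome inhibitor, present at 10 μM. Any area under the curve comes from four-parameter log-logistic fitting with drc and PharmacoGx.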
# [3] = co-treatment: GSK2194069 100 nM
# [4] = co-treatment: pictilisib 100 nM
Compound,IC50 (cell viability) (BV-173) [µM],IC50 (cell viability) (ML-2) [µM],IC50 (cell viability) (MOLM-13) [µM],IC50 (cell viability) (LAMA-84) [µM],IC50 (cell viability) (KG-1) [µM],IC50 (cell viability) (KCL-22) [µM],IC50 (cell viability) (HL-60 [1]) [µM],IC50 (cell viability) (HEL) [µM],IC50 (cell viability) (THP-1) [µM],IC50 (cell viability) (SHI-1) [µM],area under dose-response curve (HL-60 [2]; co-treatment: AZD3965 100 nM),area under dose-response curve (HL-60 [2]; co-treatment: DMSO vehicle),area under dose-response curve (HL-60 [2]; [3]),area under dose-response curve (HL-60 [2]; [4])
O=C(O)c1cc(N=Nc2ccc(S(=O)(=O)Nc3ccccn3)cc2)ccc1O [Sulfasalazine],> 10,> 10,> 10,> 10,> 10,> 10,> 10,> 10,> 10,> 10,< 0.0301,< 0.0301,< 0.0301,< 0.0301
COc1ccc(-c2ccccc2)cc1NS(=O)(=O)c1cc(Cl)cc(Cl)c1O,> 10,> 10,> 10,> 10,> 10,> 10,> 10,> 10,> 10,> 10,< 0.0301,< 0.0301,< 0.0301,< 0.0301
CC(C)(C#N)c1cc(Cn2cncn2)cc(C(C)(C)C#N)c1 [Anastrozole],> 10,> 10,> 10,> 10,> 10,> 10,> 10,> 10,> 10,> 10,< 0.0301,< 0.0301,< 0.0301,< 0.0301
Cl.NC(CCC(=O)Nc1ccc([N+](=O)[O-])cc1)C(=O)O (stereo unspecified) [GPNA],> 10,> 10,> 10,> 10,> 10,> 10,> 10,> 10,> 10,> 10,< 0.0301,< 0.0301,< 0.0301,< 0.0301
CCOP(=O)(OCC)C(=Cc1cc(C(C)(C)C)c(O)c(C(C)(C)C)c1)P(=O)(OCC)OCC,> 10,> 10,> 10,> 10,> 10,> 10,> 10,> 10,> 10,> 10,< 0.0301,< 0.0301,< 0.0301,< 0.0301
O=C(O)CCCCC(CCSCc1ccccc1)SCc1ccccc1 (stereo unspecified) [CPI-613],> 10,> 10,> 10,> 10,> 10,> 10,> 10,> 10,> 10,> 10,< 0.0301,< 0.0301,< 0.0301,< 0.0301
NS(=O)(=O)c1ccc([N+](=O)[O-])cc1 [4-Nitrobenzenesulfonamide],> 10,> 10,> 10,> 10,> 10,> 10,> 10,> 10,> 10,> 10,< 0.0301,< 0.0301,< 0.0301,< 0.0301
COc1ccc(CNC(=O)Nc2ncc([N+](=O)[O-])s2)cc1,> 10,> 10,> 10,> 10,> 10,> 10,> 10,> 10,> 10,> 10,< 0.0301,< 0.0301,< 0.0301,< 0.0301
O=C(O)C[C@@]1(O)C[C@@H](CCCCCCc2ccc(Cl)cc2Cl)OC1=O,> 10,> 10,> 10,> 10,> 10,> 10,> 10,> 10,> 10,> 10,< 0.0301,< 0.0301,< 0.0301,< 0.0301
O=C(NCCCCCCNC(=O)ONC1=CCCCC1)ONC1=CCCCC1,> 10,> 10,> 10,> 10,> 10,> 10,> 10,> 10,> 10,> 10,< 0.0301,< 0.0301,< 0.0301,< 0.0301
CC1(C)[C@@H](O[C@H]2O[C@H](C(=O)O)[C@@H](O)[C@H](O)[C@H]2O[C@@H]2O[C@H](C(=O)O)[C@@H](O)[C@H](O)[C@H]2O)CC[C@]2(C)[C@H]3C(=O)C=C4[C@@H]5C[C@@](C)(C(=O)O)CC[C@]5(C)CC[C@@]4(C)[C@]3(C)CC[C@@H]12 [Glycyrrhizin],> 10,> 10,> 10,> 10,> 10,> 10,> 10,> 10,> 10,> 10,< 0.0301,< 0.0301,< 0.0301,< 0.0301
O=C(NNc1ccccc1)c1ccncc1 [PluriSln 1],> 10,> 10,5.72,8.48,> 10,8.52,5.48,> 10,> 10,> 10,0.0541,0.0377,< 0.0301,< 0.0301
Cc1coc2c1C(=O)C(=O)c1c-2ccc2c1CCCC2(C)C [Tanshinone IIA],> 10,> 10,> 10,> 10,> 10,> 10,> 10,> 10,> 10,> 10,< 0.0301,< 0.0301,< 0.0301,< 0.0301
CCCCC/C=C\C/C=C\C/C=C\C/C=C\CCCCN1C(=O)C=CC1=O [N-Arachidonylmaleimide],> 10,> 10,> 10,> 10,> 10,> 10,> 10,> 10,> 10,> 10,< 0.0301,< 0.0301,< 0.0301,< 0.0301
CCCc1cc(-c2nc(-c3ccc(C)cc3)cs2)ccn1 [Fatostatin],6.07,6.69,> 10,> 10,2.76,> 10,8.84,> 10,> 10,4.85,< 0.0301,< 0.0301,0.0533,0.0342
CCN(CC)CCCC(C)Nc1ccnc2cc(Cl)ccc12 (stereo unspecified) [Chloroquine],> 10,> 10,> 10,> 10,> 10,> 10,> 10,> 10,> 10,> 10,< 0.0301,< 0.0301,< 0.0301,< 0.0301
O=c1oc2c(O)c(O)cc3c(=O)oc4c(O)c(O)cc1c4c23 [Benzoaric Acid],> 10,> 10,> 10,> 10,> 10,> 10,> 10,> 10,> 10,> 10,< 0.0301,< 0.0301,0.0302,0.0302
NC(=O)c1cccc(-c2cccc(OC(=O)NC3CCCCC3)c2)c1 [URB-597],> 10,> 10,> 10,> 10,> 10,> 10,> 10,> 10,> 10,> 10,,,,
COc1ccc(S(=O)(=O)N2CCN(S(=O)(=O)c3ccc4c(c3)OCCO4)CC2)cc1 [BML283],> 10,> 10,> 10,> 10,> 10,> 10,> 10,> 10,> 10,> 10,< 0.0301,< 0.0301,< 0.0301,0.0571
CCCCN1C[C@H](O)[C@@H](O)[C@H](O)[C@H]1CO [Miglustat],> 10,> 10,> 10,> 10,> 10,> 10,> 10,> 10,> 10,> 10,< 0.0301,< 0.0301,< 0.0301,< 0.0301
